“Also recorded” adds a separate entry of the source.
Key:
Type in all cases: physicochemical
[1] = Stability study in climatic chamber: appearance; details: after 15 and 30 days at 50° C./80% RH
Experimental: (§1) The stabilities of two crystalline forms of dronedarone base, namely form B according to the instant invention and form A described above, are studied in a climatic chamber (reference : Firlabo SP_BVEHF) at 50° C., with or without 80% relative humidity (RH). The duration time of the stability study is set up at 1 month. Samples are monitored in terms of appearance by microscope observation, chemical degradation by HPLC, crystalline form and phase change by XRPD (X-Ray Powder Diffraction, reference : Bruker D5000) and thermal behavior by DSC and TGA (references : TA Instrument Q100/Q1000 for DSC analyses and 050/Q500 for TGA analyses). HPLC is performed with a Waters 2487 apparatus, using as mobile phase a gradient of acetonitrile and pH 4.0 phosphate buffer (30/70 to 70/30, V/V, gradient).

[2] = Stability study in climatic chamber: crystalline form and phase change by XRPD
Experimental: as §1

[3] = Stability study in climatic chamber: thermal behavior by DSC and TGA
Experimental: as §1

[4] = Thermodynamic stability of the crystalline phases (DSC, X-ray at various temperatures); details: at and around room temperature / upon heating
Experimental: X-ray diffractograms registered at various temperatures from room temperature to 100° C., at intervals of 10° C., have confirmed the solid-solid transition from form A to form C. A first crystalline solid phase, designated as form A, exists from room temperature to […] Two crystalline forms are thus observed : form A from room temperature to about 50° C., and form C appearing above 50° C. and melting between 60 and 70° C.
All DSC measurements are performed with a Mettler DSC822e (module DSC822e/700/109/414935/0025). If not indicated differently, 40 μL Al-crucibles with sealed lid and hole are used. All measurements are carried out in a nitrogen gas flow of 50 mL/min and chosen heating rate was 10° C./min., with a heating from 25° C. to at least 150° C.
In comparison, the crystallized form C of dronedarone base presents a melting point at about 69° C. On heating with a rate of 10° C./min, form A transforms to form C at about 54° C.; on further heating, form C melts at about 65° C. (onset temperature of the second endothermic event). After formation of form C, if the heating is stopped below form C melting point and the medium is then cooled back to room temperature, form C typically transforms back to form A between 50 and 45° C.

[5] = Stability study in climatic chamber: chemical degradation by HPLC; details: 50° C. with or without 80% RH, up to 30 days
Experimental: as §1
The results in terms of chemical degradation are presented in table 8, which summarizes the content in degradation product measured in the samples. The results in table 8 represent percentages in impurities (impurities appearing after the storage for 15 to 30 days, i.e. total impurities after storage minus impurities already present at t=0).
The percentages correspond to the area under the peaks detected in chromatography.

[6] = Dynamic Vapor Sorption (DVS) moisture sorption/desorption isotherms; details: 25° C., relative humidity 0 to 95% and back, two cycles
Experimental: Moisture sorption/desorption isotherms are recorded on a DVS-1 from Surface Measurement Systems. Two cycles are run at 25° C., in which the relative humidity is stepped from 0 to 95% and back to 0%. The complete measurement time for both cycles is about 35 h. The data is evaluated using the software DVSWin V. 2.15.
The DVS isotherms of the crystallized form B of dronedarone base are represented on FIG. 5, wherein the change in dry mass (expressed in percentages) is plotted against the target relative humidity (RH, expressed in percentages). On FIG. 5, <<Sorp>> and <<Desorp>> respectively designate the humidity sorption and desorption of each cycle.

Row | Compound | appearance after storage (visual) [1] | crystalline form change by XRPD ([2]; after 15 days at 50° C./80% RH) | change in the DSC spectrum after storage ([3]; stored at 50° C./80% RH) | thermodynamic stability of the solid form [4] | chemical stability compared under the same storage conditions [5] | crystalline form change by XRPD ([2]; all tested conditions, up to 30 days) | stability in terms of crystalline phase ([2]; storage at 50° C. with or without 80% RH) | change in the DSC spectrum after storage ([3]; whatever the storage conditions) | hygroscopicity [6]
1 | CCCCc1oc2ccc(NS(C)(=O)=O)cc2c1C(=O)c1ccc(OCCCN(CCCC)CCCC)cc1 [Form A, 2-n-butyl-3-[4-(3-di-n-butylaminopropoxy)benzoyl]-5-methylsulfonamido-benzofuran] | yellow coloration; also recorded: agglomeration of the powder | appearance of some peaks of form B | additional endothermic peak | transforms to form C upon heating |  |  |  |  | 
2 | CCCCc1oc2ccc(NS(C)(=O)=O)cc2c1C(=O)c1ccc(OCCCN(CCCC)CCCC)cc1 [Form B, 2-n-butyl-3-[4-(3-di-n-butylaminopropoxy)benzoyl]-5-methylsulfonamido-benzofuran] | no change is detected |  |  | thermodynamically most stable one | more stable than form A | no change is detected | more stable than form A | No change | low
3 | CCCCc1oc2ccc(NS(C)(=O)=O)cc2c1C(=O)c1ccc(OCCCN(CCCC)CCCC)cc1 [Form C, 2-n-butyl-3-[4-(3-di-n-butylaminopropoxy)benzoyl]-5-methylsulfonamido-benzofuran] |  |  |  | unstable at room temperature |  |  |  |  | 
